# Read-outs that look alike come from different tables or passages of the source.
# Columns and labels:
# Test in all cases: microbe, parasite or virus in culture
# Details in all cases: Hepatitis C virus
# [1] = test system: stable HCV 1a RLuc replicon cells (genotype 1a H77 replicon); format: cell-based
# [2] = test system: stable HCV 1b RLuc replicon cells (genotype 1b Con1 replicon); format: cell-based
# [3] = test system: stable HCV 2a JFH-1 Rluc replicon cells (L31 present in NS5A); format: cell-based
# [4] = test system: NS5A chimeric genotype 2a JFH-1 replicon with genotype 2a J6 strain NS5A gene (M31 present); format: cell-based, HCV
# [5] = test system: NS5A chimeric genotype 2a JFH-1 replicon with genotype 2b MD2b-1 strain NS5A gene (M31 present); format: cell-based, HCV
# Outline: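 Con1-based 3a and 4a chimeras carried a Pi-RLuc reporter and were transiently transfected into Huh-Lunet cells; the JFH-1-based 2b chimera (RLuc-Neo) was used transiently or as stable replicon cells.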
# [6] = test system: NS5A chimeric genotype 1b Con1 replicon with genotype 4a ED43 strain NS5A gene; format: cell-based, HCV
Structure (SMILES),EC50 ([1]; read-out: 1a) [nM],EC50 ([1]; read-out: 1a (nM)) [nM],EC50 ([2]; read-out: 1b (nM)) [nM],EC50 ([3]; read-out: 2a JFH) [nM],EC50 ([3]; read-out: 2a JFH (nM)) [nM],EC50 ([4]; read-out: 2a J6) [nM],EC50 ([4]; read-out: 2a Jb (t) (nM)) [nM],EC50 ([5]; read-out: 2b) [nM],EC50 ([5]; read-out: 2b (t) (nM)) [nM],other results
"CCC(C)C(NC(=O)OC)C(=O)N1CC(COC)C[C@H]1c1nc2ccc3cc4c(cc3c2[nH]1)OCc1cc(-c2cnc(C3C[C@H](C)CN3C(=O)[C@@H](NC(=O)OC)C(C)CC)[nH]2)ccc1-4 (stereo in doubt) [Example QE, Methyl {(3R)-1-[(2S,4S)-2-(9-{2-[(2S,4S)-1-{(2S,3R)-2-[(methoxycarbonyl)amino]-3-methylpentanoyl}-4-methylpyrrolidin-2-yl]-1H-imidazol-5-yl}-1,11-dihydroisochromeno[4′,3′:6,7]naphtho[1,2-d]imidazol-2-yl)-4-(methoxymethyl)pyrrolidin-1-yl]-3-methyl-1-oxopentan-2-yl}carbamate]",< 1,0.013,0.015,< 1,0.011,< 1,0.291,< 1,0.563,
COC[C@H]1C[C@@H](c2nc3ccc4cc5c(cc4c3[nH]2)OCc2cc(-c3cnc([C@@H]4CC[C@H](C)N4C(=O)[C@@H](NC(=O)OC)[C@@H](C)OC)[nH]3)ccc2-5)N(C(=O)[C@@H](NC(=O)OC)[C@@H](C)OC)C1 [Compound 646],,,,,,,,,,EC50 ([1]; read-out: 1a (nM) EC50): 0.058 nM; EC50 ([1]; read-out: 1a EC50 range): < 1 nM; EC50 ([2]; read-out: 1b (nM) EC50): 0.109 nM; EC50 ([3]; read-out: 2a JFH (nM) EC50): 0.03 nM; EC50 ([3]; read-out: 2a JFH EC50 range): < 1 nM; EC50 ([4]; read-out: 2a J6 EC50 range): < 1 nM; EC50 ([4]; read-out: 2a Jb (t) (nM) EC50): 0.042 nM; EC50 ([5]; read-out: 2b (s) (nM) EC50): 0.262 nM; EC50 ([5]; read-out: 2b (t) (nM) EC50): 0.112 nM; EC50 ([5]; read-out: 2b EC50 range): < 1 nM; EC50 ([6]; read-out: 4a (s) (nM) EC50): 0.034 nM; EC50 ([6]; read-out: 4a EC50 range): < 1 nM
COC(=O)N[C@H](C(=O)N1[C@@H]2C[C@@H]2C[C@H]1c1ncc(-c2ccc3c(c2)COc2cc4c(ccc5nc([C@@H]6C[C@H](COC(F)F)CN6C(=O)[C@H](NC(=O)OC)c6ccccc6)[nH]c54)cc2-3)[nH]1)C(C)C [Example MW],< 1,0.012,0.026,< 1,0.012,< 1,0.02,< 1,0.043,EC50 ([5]; read-out: 2b (s) (nM)): 0.123 nM; EC50 ([6]; read-out: 4a): < 1 nM; EC50 ([6]; read-out: 4a (s) (nM)): 0.011 nM
"COC[C@H]1C[C@@H](c2nc3ccc4cc5c(cc4c3[nH]2)OCc2cc(-c3cnc([C@@H]4C[C@H](C)CN4C(=O)[C@@H](NC(=O)OC)[C@@H](C)OC)[nH]3)ccc2-5)N(C(=O)[C@@H](NC(=O)OC)[C@@H](C)OC)C1 [Example NK, Methyl {(2S,3R)-3-methoxy-1-[(2S,4S)-2-[9-(2-{(2S,4S)-1-[N-(methoxycarbonyl)-O-methyl-L-threonyl]-4-methylpyrrolidin-2-yl}-1H-imidazol-5-yl)-1,11-dihydroisochromeno[4′,3′:6,7]naphtho[1,2-d]imidazol-2-yl]-4-(methoxymethyl)pyrrolidin-1-yl]-1-oxobutan-2-yl}carbamate]",< 1,0.049,0.081,< 1,0.018,< 1,0.056,< 1,0.154,
"COC(=O)N[C@H](C(=O)N1[C@@H](C)CC[C@H]1c1ncc(-c2ccc3c(c2)COc2cc4c(ccc5nc([C@@H]6C[C@H](C)CN6C(=O)[C@@H](NC(=O)OC)[C@@H](C)OC)[nH]c54)cc2-3)[nH]1)C(C)C [Example NL, Methyl {(2S)-1-[(2S,5S)-2-(5-{2-[(2S,4S)-1-{(2S,3R)-3-methoxy-2-[(methoxycarbonyl)amino]butanoyl}-4-methylpyrrolidin-2-yl]-1,11-dihydroisochromeno[4′,3′:6,7]naphtho[1,2-d]imidazol-9-yl}-1H-imidazol-2-yl)-5-methylpyrrolidin-1-yl]-3-methyl-1-oxobutan-2-yl}carbamate]",< 1,0.011,0.013,< 1,0.007,< 1,0.043,< 1,0.034,

# Reference: US8575135B2 (Gilead Sciences, Inc., priority 2011, dated 2013)
